These results are taken from article PMC2365111, “Cytotoxicity of Poly(Phenolic)Sulfonates and Their Sodium Salts in L1210 Lymphoid Leukemia Cells” (Metal-Based Drugs, 1998).

The target in one experiment is T1, Ribonucleoside reductase (Mus musculus, UniProt P07742).
T1 construct: preparing the appropriate L1210 cell homogenates or subcellular fractions; endogenous in cells; host or cells: L1210 murine lymphoid leukemia cells, homogenate or subcellular fraction
T1 sequence (P07742 1-792): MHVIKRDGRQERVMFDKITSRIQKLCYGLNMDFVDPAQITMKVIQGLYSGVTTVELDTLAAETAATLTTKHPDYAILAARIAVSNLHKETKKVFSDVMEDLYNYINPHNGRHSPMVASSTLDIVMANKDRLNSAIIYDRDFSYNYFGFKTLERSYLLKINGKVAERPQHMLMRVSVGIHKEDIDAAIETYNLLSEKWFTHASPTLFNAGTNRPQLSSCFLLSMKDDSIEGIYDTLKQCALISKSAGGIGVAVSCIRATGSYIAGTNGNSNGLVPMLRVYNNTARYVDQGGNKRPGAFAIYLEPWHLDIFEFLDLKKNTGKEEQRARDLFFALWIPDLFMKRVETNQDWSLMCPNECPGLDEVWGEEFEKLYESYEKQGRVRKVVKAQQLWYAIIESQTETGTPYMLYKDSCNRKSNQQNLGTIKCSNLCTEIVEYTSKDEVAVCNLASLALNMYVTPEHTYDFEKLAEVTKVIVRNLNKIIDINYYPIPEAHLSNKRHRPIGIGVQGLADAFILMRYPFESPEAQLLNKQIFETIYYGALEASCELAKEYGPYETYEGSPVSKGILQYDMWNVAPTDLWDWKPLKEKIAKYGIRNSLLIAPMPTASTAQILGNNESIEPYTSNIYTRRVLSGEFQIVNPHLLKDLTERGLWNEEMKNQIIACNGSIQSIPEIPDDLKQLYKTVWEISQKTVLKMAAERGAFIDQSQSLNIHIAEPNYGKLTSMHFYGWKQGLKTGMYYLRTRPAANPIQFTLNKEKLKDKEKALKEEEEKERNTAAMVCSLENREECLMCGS
T1 sequence (P11157 1-390 partner): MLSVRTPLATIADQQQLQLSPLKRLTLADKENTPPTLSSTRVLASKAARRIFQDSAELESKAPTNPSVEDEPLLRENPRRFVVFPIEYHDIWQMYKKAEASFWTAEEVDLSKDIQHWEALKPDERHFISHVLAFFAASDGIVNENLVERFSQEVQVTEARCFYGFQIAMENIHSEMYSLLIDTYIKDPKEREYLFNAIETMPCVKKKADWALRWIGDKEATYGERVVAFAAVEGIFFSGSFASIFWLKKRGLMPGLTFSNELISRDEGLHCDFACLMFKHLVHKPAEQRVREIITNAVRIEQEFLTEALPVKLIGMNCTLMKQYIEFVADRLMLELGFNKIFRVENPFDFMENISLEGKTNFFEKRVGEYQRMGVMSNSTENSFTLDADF
Kind of experiment: Ribonucleoside reductase activity, L1210. Format: biochemical. Particulars: 60 min, N=6. From the text:
(§1) CYTOTOXlCITY OF POLY(PHENOLIC)SULFONATES AND THEIR SODIUM SALTS IN L1210 LYMPHOID LEUKEMIA CELLS Fei Wang, Amy E. Warren, Cheryl R. Barnes and Iris H. Hall* Division of Medicinal Chemistry and Natural Products University of North Carolina Chapel Hill, N.C. […] Because ofthese properties it was surmised that these poly(phenolic)sulfonated compounds may have antineoplastic activity. METHODS Source of Compounds Test compounds were supplied by GeneLabs, Inc. [Redwood City, CA [Table 1]. Radioisotopes were obtained from New England Nuclear [Dupont, Boston, MA]. Substrates and co-factors were purchased om Sigma Chemical Co., [St Louis, MO]. Pentosan sulfate and other antineoplastic standards were obtained from Sigma Chemical Co. Tumor lines were obtained from American Type Culture Collection [Rockville, MD]. 147 Vol. 5, No. 3, 1998 Cytotoxicity ofSodium Poly(Phenolic)Sulfonates in L1210 Lymphoid Leukemia Cells Table 1 Structures of Poly(phenolic)sulfonate Compounds O2R" n Compound R' R" n MW # G1-2041 H OH 8 1489.46 G1-2029 H OH 6 1117.09 G1-2030 H OH 4 744.73 GI-2021 CH3 ONa 8 1777.5 G1-2057 CH3 ONa 4 888.75 GI-2158 CH3 ONa 6 1333.13 GI-2063 OCH3 ONa 8 2001.65 G1-2042 OAc ONa 8 2017.73 Cytotoxicity Poly(phenolic)sulfonates were tested for cytotoxic activity by homogenizing drug in 0.05% Tween 80/H20 to give a mg/ml stock concentration. These solutions were sterilized by passing them through an acrodisc ([…]). The following cell lines were maintained by literature techniques: murine L1210 lymphoid leukemia, P-388 lymphocytic leukemia, rat UMR 106 osteosarcoma, human Tmolt3 acute lymphoblastic T cell leukemia, HUT-8 lymphoma, HeLa-S suspended cervical carcinoma, HeLa solid cervical carcinoma, KB epidermoid nasopharynx, A431 epidermoid carcinoma, colorectal adenocarcinoma SW480, HCT-8 ileocecal adenocarcinoma, lung bronchogenic MB-9812, A549 lung carcinoma, and glioma HS683. Geran et al.'s protocol was used to assess the cytotoxicity of the compounds and standards in each cell line. Cell numbers were determined by the trypan blue exclusion technique. Solid tumor cytotoxicity was determined by Leibovitz et al. 's method utilizing crystal violeeOH and read at 562 nm (Molecular Devices). Values for cytotoxicity were expressed as EDs0 g/ml, i.e. the concentration ofthe compound inhibiting 50% ofcell growth. A value of less than 4 µg/ml was required for significant activity ofgrowth inhibition. Incorporation Studies Incorporation of labeled precursors into 3H-DNA, 3H -RNA and 3H -protein for 10 L1210 cells was obtained. The concentration response for inhibition of DNA, RNA and protein synthesis of the compounds at 25, 50 and 100 l.tM was determined for 60 min incubations. Incorporation of 14C -glycine (53.0 mCi/mmol) into purines was obtained by the method of Cadman et al.[12]. Incorporation of 4C- formate (53.0 mCi/mmol) into pyrimidines was determined by the method of Christopherson et al.[13]. Enzyme Assays Inhibition of various enzyme activities was performed by first preparing the appropriate L1210 cell homogenates or subcellular fractions, then adding the drug to be tested during the enzyme assay. For the concentration response studies, inhibition of enzyme activity was determined at 25, 50 and 100 l.tM of compounds G1-2021, G1-2029, GI-2041 and G1-2063 after 60 min incubations. DNA polymerase Ot activity was determined in cytoplasmic extracts isolated by Eichler et aL's method. The DNA polymerase assay was described by Sedwick et al.[15] using 3H-TTP. Messenger-, ribosomal- and transfer-RNA polymerase enzymes were isolated with different concentrations of ammonium sulfate; individual RNA polymerase activities were determined using 3H -UTP 16,17]. Ribonucleoside reductase activity was measured using 4C -CDP with dithioerythritol. The deoxyribonucleotides 4C -dCDP were separated from the ribonucleotides by TLC on PEI plates. […]

For experiment [1], the target named is T2, Carbamyl phosphate synthetase (Mus musculus, UniProt B2RQC6).
T2 construct: preparing the appropriate L1210 cell homogenates or subcellular fractions; endogenous in cells; host or cells: L1210 murine lymphoid leukemia cells, homogenate or subcellular fraction
In words: Carbamyl phosphate synthetase activity, L1210. The experiment is classed as biochemical. Particulars: 60 min, N=6.
From the text: as §1

T2 sequence (B2RQC6 whole entry): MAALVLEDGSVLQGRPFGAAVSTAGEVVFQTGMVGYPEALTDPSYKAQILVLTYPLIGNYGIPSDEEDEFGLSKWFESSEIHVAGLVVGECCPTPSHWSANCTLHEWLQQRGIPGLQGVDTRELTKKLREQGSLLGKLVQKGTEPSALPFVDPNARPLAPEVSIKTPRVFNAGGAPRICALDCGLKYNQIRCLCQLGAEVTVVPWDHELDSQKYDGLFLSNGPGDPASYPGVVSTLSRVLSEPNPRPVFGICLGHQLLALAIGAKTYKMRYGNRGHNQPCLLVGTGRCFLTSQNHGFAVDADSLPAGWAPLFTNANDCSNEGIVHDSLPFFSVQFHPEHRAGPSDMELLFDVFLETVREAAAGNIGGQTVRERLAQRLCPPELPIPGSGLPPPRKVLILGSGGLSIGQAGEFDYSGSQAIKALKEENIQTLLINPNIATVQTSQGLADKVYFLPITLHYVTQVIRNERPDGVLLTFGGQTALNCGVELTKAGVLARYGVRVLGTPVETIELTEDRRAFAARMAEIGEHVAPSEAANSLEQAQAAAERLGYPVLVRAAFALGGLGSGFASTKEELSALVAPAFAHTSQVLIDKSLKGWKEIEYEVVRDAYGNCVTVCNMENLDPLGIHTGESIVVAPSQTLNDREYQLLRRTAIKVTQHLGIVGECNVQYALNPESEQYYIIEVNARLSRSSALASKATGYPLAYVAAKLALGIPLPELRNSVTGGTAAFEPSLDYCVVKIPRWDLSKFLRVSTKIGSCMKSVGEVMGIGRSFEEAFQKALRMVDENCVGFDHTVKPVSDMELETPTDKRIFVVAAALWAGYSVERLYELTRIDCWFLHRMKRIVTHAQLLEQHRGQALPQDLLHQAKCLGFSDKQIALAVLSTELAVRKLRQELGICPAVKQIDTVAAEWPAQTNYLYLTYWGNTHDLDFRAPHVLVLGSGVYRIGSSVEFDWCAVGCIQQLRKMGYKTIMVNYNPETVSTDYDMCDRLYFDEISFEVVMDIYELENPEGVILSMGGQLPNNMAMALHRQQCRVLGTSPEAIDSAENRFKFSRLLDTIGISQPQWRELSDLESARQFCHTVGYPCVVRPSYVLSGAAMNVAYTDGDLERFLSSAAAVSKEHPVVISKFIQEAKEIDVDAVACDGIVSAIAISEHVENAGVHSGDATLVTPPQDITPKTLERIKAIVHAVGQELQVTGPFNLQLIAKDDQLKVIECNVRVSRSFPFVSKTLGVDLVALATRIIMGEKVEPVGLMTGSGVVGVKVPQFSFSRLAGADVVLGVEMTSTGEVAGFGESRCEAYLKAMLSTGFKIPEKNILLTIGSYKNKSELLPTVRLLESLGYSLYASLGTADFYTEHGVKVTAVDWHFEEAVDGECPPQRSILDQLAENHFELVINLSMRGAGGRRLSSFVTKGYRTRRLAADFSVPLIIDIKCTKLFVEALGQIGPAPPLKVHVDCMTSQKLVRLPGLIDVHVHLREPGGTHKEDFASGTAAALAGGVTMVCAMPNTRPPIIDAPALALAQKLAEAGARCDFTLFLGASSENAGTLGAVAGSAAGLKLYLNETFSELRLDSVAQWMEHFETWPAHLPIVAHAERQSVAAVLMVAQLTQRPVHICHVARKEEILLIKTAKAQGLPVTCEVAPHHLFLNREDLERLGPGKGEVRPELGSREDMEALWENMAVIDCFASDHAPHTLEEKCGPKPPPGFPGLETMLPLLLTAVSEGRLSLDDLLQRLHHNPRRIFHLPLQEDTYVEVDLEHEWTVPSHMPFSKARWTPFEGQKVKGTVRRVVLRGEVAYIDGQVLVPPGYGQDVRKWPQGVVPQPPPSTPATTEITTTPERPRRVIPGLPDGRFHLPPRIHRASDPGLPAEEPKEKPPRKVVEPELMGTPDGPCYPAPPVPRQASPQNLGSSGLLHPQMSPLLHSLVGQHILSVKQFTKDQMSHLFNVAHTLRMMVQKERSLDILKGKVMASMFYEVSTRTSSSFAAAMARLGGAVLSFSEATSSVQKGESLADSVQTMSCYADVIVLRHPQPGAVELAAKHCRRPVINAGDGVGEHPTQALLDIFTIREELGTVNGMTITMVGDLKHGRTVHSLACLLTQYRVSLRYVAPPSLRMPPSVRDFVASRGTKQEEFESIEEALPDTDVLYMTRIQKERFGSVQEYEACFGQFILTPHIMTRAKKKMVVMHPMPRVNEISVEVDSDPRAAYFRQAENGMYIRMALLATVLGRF

For `O=S(=O)(O)c1cc2c(O)c(c1)Cc1cc(S(=O)(=O)O)cc(c1O)Cc1cc(S(=O)(=O)O)cc(c1O)Cc1cc(S(=O)(=O)O)cc(c1O)Cc1cc(S(=O)(=O)O)cc(c1O)Cc1cc(S(=O)(=O)O)cc(c1O)C2` [GI-2029], the Ribonucleoside reductase at Ribonucleoside reductase (25 μM) was 130+5% of Control; on Ribonucleoside reductase (50 μM), 130+6% of Control; at Ribonucleoside reductase (100 μM) it was 141+5% of Control. The values for the Carbamyl phosphate synthetase in experiment [1] (25 μM) and in experiment [1] (100 μM) were 78+5% of Control and 72+3% of Control, respectively.
Take `O=S(=O)(O)c1cc2c(O)c(c1)Cc1cc(S(=O)(=O)O)cc(c1O)Cc1cc(S(=O)(=O)O)cc(c1O)Cc1cc(S(=O)(=O)O)cc(c1O)Cc1cc(S(=O)(=O)O)cc(c1O)Cc1cc(S(=O)(=O)O)cc(c1O)Cc1cc(S(=O)(=O)O)cc(c1O)Cc1cc(S(=O)(=O)O)cc(c1O)C2` [GI-2041]: the Ribonucleoside reductase at Ribonucleoside reductase (25 μM) is listed as 127+5% of Control; on Ribonucleoside reductase (50 μM) it was 127+6% of Control. Further, the Carbamyl phosphate synthetase is recorded as 142+6% of Control in experiment [1] (25 μM) and 82+5% of Control in experiment [1] (50 μM).
Take `COc1c2cc(S(=O)(=O)[O-])cc1Cc1cc(S(=O)(=O)[O-])cc(c1OC)Cc1cc(S(=O)(=O)[O-])cc(c1OC)Cc1cc(S(=O)(=O)[O-])cc(c1OC)Cc1cc(S(=O)(=O)[O-])cc(c1OC)Cc1cc(S(=O)(=O)[O-])cc(c1OC)Cc1cc(S(=O)(=O)[O-])cc(c1OC)Cc1cc(S(=O)(=O)[O-])cc(c1OC)C2.[Na+].[Na+].[Na+].[Na+].[Na+].[Na+].[Na+].[Na+]` [GI-2021]: the Ribonucleoside reductase on Ribonucleoside reductase (25 μM) was 158+6% of Control; on Ribonucleoside reductase (50 μM), 124+5% of Control; on Ribonucleoside reductase (100 μM) it was 91+5% of Control. The figures for the Carbamyl phosphate synthetase in experiment [1] (25 μM) and in experiment [1] (50 μM) were 94+5% of Control and 89+5% of Control, respectively.
